Measured values taken from ChEMBL document CHEMBL4028815, “Novel phosphonate analogs of sulforaphane: Synthesis, in vitro and in vivo anticancer activity” (Eur J Med Chem, 2017).
Calls of active or inactive are those of the source. The rule behind the calls is not given here.

How the values were obtained:
LoVo [1] = test: Cytotoxicity against human LoVo cells after 72 hrs by sulforhodamine B assay; format: functional, cell-based
[2] = Cytotoxicity against human LoVo/DX cells after 72 hrs by sulforhodamine B assay; format: functional, cell-based
LoVo [3] = test: Potency index, ratio of sulforaphane IC50 to compound IC50 for human LoVo cells; format: functional
LoVo [4] = test: Potency index, ratio of benzyl isothiocyanate IC50 to compound IC50 for human LoVo cells; format: functional
LoVo [5] = test: Induction of apoptosis in human LoVo cells assessed as increase in caspase3/7 activity at 15 uM using Ac-DEVD-ACC as substrate pretreated for 24 hrs followed by substrate addition measured for 2 hrs by fluorescence assay relative to control; format: functional
LoVo [6] = test: Induction of apoptosis in human LoVo cells assessed as necrotic cells at 15 uM after 24 hrs by APC-Annexin-V/propidium iodide staining based flow cytometric method (reference value: 10%); format: functional
[7] = Induction of apoptosis in human LoVo/DX cells assessed as loss of mitochondrial membrane potential at 15 uM after 24 hrs by JC-1 staining based flow cytometric method relative to control; format: functional
LoVo [8] = test: Induction of apoptosis in human LoVo cells assessed as increase in early apoptotic cells at 15 uM after 24 hrs by APC-Annexin-V/propidium iodide staining based flow cytometric method relative to control; format: functional
LoVo [9] = test: Induction of apoptosis in human LoVo cells assessed as loss of mitochondrial membrane potential at 15 uM after 24 hrs by JC-1 staining based flow cytometric method relative to control; format: functional
[10] = Induction of apoptosis in human LoVo/DX cells assessed as increase in caspase3/7 activity at 15 uM using Ac-DEVD-ACC as substrate pretreated for 24 hrs followed by substrate addition measured for 2 hrs by fluorescence assay relative to control; format: functional
LoVo/DX = test: Induction of apoptosis in human LoVo/DX cells assessed as late apoptotic cells at 15 uM after 24 hrs by APC-Annexin-V/propidium iodide staining based flow cytometric method relative to control; format: functional
LoVo [11] = test: Induction of apoptosis in human LoVo cells assessed as late apoptotic cells at 15 uM after 24 hrs by APC-Annexin-V/propidium iodide staining based flow cytometric method relative to control; format: functional

Row | SMILES | IC50 (LoVo [1]) [µM] | IC50 [2] [µM] | other results
1 | COP(=O)(CCN=C=S)OC | 12.3 | 12.4 | –
2 | O=P(CCCCCN=C=S)(Oc1ccccc1)Oc1ccccc1 | 2.2 | 4.6 | Ratio IC50 (LoVo [3]): 10; Ratio IC50 (LoVo [4]): 5
3 | O=P(CCN=C=S)(OCC(F)(F)F)OCC(F)(F)F | 5.5 | 8.2 | –
4 | CCOP(=O)(CCCCN=C=S)OCC | 4.6 | 10.2 | –
5 | C=CCN=C=S [ALLYL ISOTHIOCYANATE] | 21.2 | 29.3 | –
6 | O=P(CCCCN=C=S)(OCC1CCCO1)OCC1CCCO1 (centres undefined) | 5 | 7.6 | –
7 | COP(=O)(CCCCCN=C=S)OC | 5 | 9.4 | –
8 | CC(C)OP(=O)(CCN=C=S)OC(C)C | 2.7 | 3.6 | Ratio IC50 (LoVo [3]): 10; Ratio IC50 (LoVo [4]): 5
9 | CCOP(=O)(CCCCCN=C=S)OCC | 2.8 | 3.1 | Ratio IC50 (LoVo [3]): 10; Ratio IC50 (LoVo [4]): 5
10 | O=P(CCCCN=C=S)(Oc1ccccc1)Oc1ccccc1 | 2.3 | 3.1 | Ratio IC50 (LoVo [3]): 10; Ratio IC50 (LoVo [4]): 5
11 | C#CCOP(=O)(CCCCN=C=S)OCC#C | 3.2 | 11.3 | –
12 | COP(=O)(CCCN=C=S)OC | 9.3 | 9.6 | –
13 | C[S+]([O-])CCCCN=C=S (centres undefined) [SULFORAPHANE] | 22.9 | 18.1 | fold change (FC) (LoVo [5]): 1.41; Activity (LoVo [6]): Active; Activity [7]: 35%; Activity (LoVo [8]): inactive; Activity (LoVo [9]): 35%; fold change (FC) [10]: 2.52; Activity (LoVo/DX): Active; Activity (LoVo [11]): Active
14 | O=P(CCCCCN=C=S)(OCc1ccccc1)OCc1ccccc1 | 3.5 | 8.5 | –
15 | O=P(CCCCCCN=C=S)(OCc1ccccc1)OCc1ccccc1 | 4.6 | 9.2 | –
16 | C=CCOP(=O)(CCCCN=C=S)OCC=C | 5.2 | 3.7 | –
17 | CC(C)COP(=O)(CCCCCN=C=S)OCC(C)C | 2.4 | 5.1 | Ratio IC50 (LoVo [3]): 10; Ratio IC50 (LoVo [4]): 5
18 | O=P(CCCCN=C=S)(OCC(F)(F)F)OCC(F)(F)F | 4.9 | 5.7 | –
19 | COP(=O)(CCCCCCN=C=S)OC | 5.4 | 9.9 | –
20 | CC(C)OP(=O)(CCCN=C=S)OC(C)C | 2.6 | 3.3 | Ratio IC50 (LoVo [3]): 10; Ratio IC50 (LoVo [4]): 5
21 | O=P(CCCN=C=S)(Oc1ccccc1)Oc1ccccc1 | 4.2 | 10.2 | –
22 | O=P(CCCN=C=S)(OCC(F)(F)F)OCC(F)(F)F | 3.9 | 4.7 | –
